“And” between values parts separate entries of the source, which are not always exact repeats. Equal values may be shown once. Inconclusive results and toxic doses are left out. Rule as the data show it: active = T/C of 150% or more; inactive = T/C below 125%.
Test system: L1210 leukemia ip in BDF1 mice, survival T/C
Test: NCI In Vivo Anticancer Drug Screen. Data for tumor model L1210 Leukemia (intraperitoneal) in B6D2F1 (BDF1) mice
Conditions: endpoint: mean survival time, higher = longer survival
Method in brief: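 Each compound was tested against a transplantable tumor grown in mice. The endpoint was survival, with treated animals benchmarked against vehicle controls as a simple ratio.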

[1] = dose: 100.0 mg/kg/injection, schedule: Q04DX002 (ip), vehicle: saline
[2] = dose: 50.0 mg/kg/injection, schedule: Q01DX001 (ip), vehicle: saline
[3] = dose: 100.0 mg/kg/injection, schedule: Q01DX001 (ip), vehicle: saline
[4] = dose: 100.0 mg/kg/injection, schedule: Q01DX009 (ip), vehicle: Klucel (hydroxypropylcellulose) (HPC)
[5] = dose: 200.0 mg/kg/injection, schedule: Q01DX009 (ip), vehicle: Klucel (hydroxypropylcellulose) (HPC)
[6] = dose: 100.0 mg/kg/injection, schedule: Q04DX003 (ip), vehicle: Klucel (hydroxypropylcellulose) (HPC)
[7] = dose: 200.0 mg/kg/injection, schedule: Q04DX003 (ip), vehicle: Klucel (hydroxypropylcellulose) (HPC)
[8] = dose: 400.0 mg/kg/injection, schedule: Q04DX003 (ip), vehicle: Klucel (hydroxypropylcellulose) (HPC)
[9] = dose: 25.0 mg/kg/injection, schedule: Q01DX009 (ip), vehicle: saline with Tween-80
[10] = dose: 50.0 mg/kg/injection, schedule: Q01DX009 (ip), vehicle: saline with Tween-80
[11] = dose: 100.0 mg/kg/injection, schedule: Q01DX009 (ip), vehicle: saline with Tween-80
[12] = dose: 100.0 mg/kg/injection, schedule: Q01DX009 (ip), vehicle: saline
[13] = dose: 200.0 mg/kg/injection, schedule: Q01DX009 (ip), vehicle: saline

Measured: T/C

[NH-]C(CC(N)=O)C(=O)O.[NH-]C(CC(N)=O)C(=O)O.[Ni+2] (centres undefined)
inactive: dose: 6.25 mg/kg/injection, schedule: Q01DX009 (ip), vehicle: water 92 % of control | dose: 12.5 mg/kg/injection, schedule: Q01DX009 (ip), vehicle: water 91 % of control | dose: 25.0 mg/kg/injection, schedule: Q01DX009 (ip), vehicle: water 88 % of control | dose: 25.0 mg/kg/injection, schedule: Q04DX002 (ip), vehicle: saline 110 % of control | dose: 50.0 mg/kg/injection, schedule: Q04DX002 (ip), vehicle: saline 100 % of control | dose: 50.0 mg/kg/injection, schedule: Q04DX003 (ip), vehicle: water 112 % of control | [1] 123 % of control | dose: 100.0 mg/kg/injection, schedule: Q04DX003 (ip), vehicle: water 117 % of control

Cc1ccc(CC(=O)c2c(C)[nH]c3ccccc23)cc1C
inactive: [2] 108 % of control | [3] 96 % of control | dose: 200.0 mg/kg/injection, schedule: Q01DX001 (ip), vehicle: saline 96 % of control | dose: 400.0 mg/kg/injection, schedule: Q01DX001 (ip), vehicle: saline 96 % of control

CC(=O)OI(OC(C)=O)c1ccccc1
inactive: [4] 98 % of control | [5] 102 % of control

CCCCN(CCCC)c1ccc(/C=C/c2ccncc2)cc1
inactive: dose: 100.0 mg/kg/injection, schedule: Q01DX001 (ip), vehicle: Klucel (hydroxypropylcellulose) (HPC) 95 % of control | [4] 93 % of control | dose: 200.0 mg/kg/injection, schedule: Q01DX001 (ip), vehicle: Klucel (hydroxypropylcellulose) (HPC) 101 % of control | [5] 101 % of control | dose: 400.0 mg/kg/injection, schedule: Q01DX001 (ip), vehicle: Klucel (hydroxypropylcellulose) (HPC) 96 % of control | dose: 400.0 mg/kg/injection, schedule: Q01DX009 (ip), vehicle: Klucel (hydroxypropylcellulose) (HPC) 90 % of control

O=P(OCc1ccccc1)(N(CCCl)CCCl)N1CCN(P(=O)(OCc2ccccc2)N(CCCl)CCCl)CC1 (centres undefined)
inactive: dose: 16.0 mg/kg/injection, schedule: Q01DX Z (ip), vehicle: saline 94 % of control | dose: 32.0 mg/kg/injection, schedule: Q01DX Z (ip), vehicle: saline 89 % of control | dose: 64.0 mg/kg/injection, schedule: Q01DX Z (ip), vehicle: saline 95 % of control | dose: 128.0 mg/kg/injection, schedule: Q01DX Z (ip), vehicle: saline 111 % of control

CCCCOCCOCCOC(OCCOCCOCCCC)c1ccc2c(c1)OCO2
inactive: [1] 88 % of control | dose: 200.0 mg/kg/injection, schedule: Q04DX002 (ip), vehicle: saline 92 % of control | dose: 400.0 mg/kg/injection, schedule: Q04DX002 (ip), vehicle: saline 95 % of control

OC(c1cc(Nc2ccc(Cl)cc2)nc2ccccc12)C1CCCCN1 (centres undefined)
inactive: [6] 95 % of control | [7] 101 % of control

O=C(Nc1ccccc1)NC(O)C(Cl)(Cl)Cl (centres undefined)
inactive: [6] 95 % of control | [7] 95 % of control | [8] 98 % of control

CCNC(C)CC(C)C (centres undefined)
inactive: [9] 101 % of control | dose: 25.0 mg/kg/injection, schedule: Q04DX003 (ip), vehicle: saline with Tween-80 95 % of control | [10] 92 % of control | dose: 50.0 mg/kg/injection, schedule: Q04DX003 (ip), vehicle: saline with Tween-80 92 % of control | [11] 98 % of control | dose: 100.0 mg/kg/injection, schedule: Q04DX003 (ip), vehicle: saline with Tween-80 93 % of control and 96 % of control

O=C(NCCF)NC1CS(=O)(=O)CS(=O)(=O)C1
inactive: dose: 9.5 mg/kg/injection, schedule: Q01DX001 (ip), vehicle: other 100 % of control | dose: 19.0 mg/kg/injection, schedule: Q01DX001 (ip), vehicle: other 105 % of control | dose: 38.0 mg/kg/injection, schedule: Q01DX001 (ip), vehicle: other 96 % of control

C[N+](C)(C)CN1C(=O)c2ccccc2C1=O
inactive: dose: 50.0 mg/kg/injection, schedule: Q01DX009 (ip), vehicle: saline 101 % of control | [12] 97 % of control | [13] 88 % of control

CC12CCCC(O)(CC(=O)C1)C2 (centres undefined)
inactive: [12] 93 % of control | dose: 100.0 mg/kg/injection, schedule: Q04DX003 (ip), vehicle: acetone 95 % of control | [13] 95 % of control | dose: 200.0 mg/kg/injection, schedule: Q04DX003 (ip), vehicle: acetone 101 % of control | dose: 400.0 mg/kg/injection, schedule: Q01DX009 (ip), vehicle: saline 91 % of control | dose: 400.0 mg/kg/injection, schedule: Q04DX003 (ip), vehicle: acetone 98 % of control

Cc1ccc(S(=O)(=O)OCCN(CCOS(=O)(=O)c2ccc(C)cc2)c2ccc(N=O)cc2)cc1
inactive: [2] 115 % of control | [3] 124 % of control

CN(Cc1ccc(Cl)cc1)C(=O)Nc1ccccc1C(F)(F)F
inactive: [11] 108 % of control | dose: 200.0 mg/kg/injection, schedule: Q01DX009 (ip), vehicle: saline with Tween-80 106 % of control | dose: 400.0 mg/kg/injection, schedule: Q01DX009 (ip), vehicle: saline with Tween-80 103 % of control

Cc1ccc(NN)cc1Cl
inactive: [6] 105 % of control | [7] 91 % of control

COc1ccc(CC(=O)NCCc2ccccc2)cc1OC
inactive: dose: 12.5 mg/kg/injection, schedule: Q01DX009 (ip), vehicle: saline with Tween-80 92 % of control | [9] 92 % of control | [10] 103 % of control and 92 % of control | [11] 105 % of control

CCCC[n+]1cc(C(N)=O)cc2ccccc21
inactive: dose: 75.0 mg/kg/injection, schedule: Q01DX001 (ip), vehicle: saline 96 % of control | dose: 150.0 mg/kg/injection, schedule: Q01DX001 (ip), vehicle: saline 95 % of control

O=S(=O)(C1CC1)C1CC1
inactive: dose: 100.0 mg/kg/injection, schedule: Q04DX002 (ip), vehicle: saline with Tween-80 94 % of control | dose: 200.0 mg/kg/injection, schedule: Q04DX002 (ip), vehicle: saline with Tween-80 103 % of control | dose: 400.0 mg/kg/injection, schedule: Q04DX002 (ip), vehicle: saline with Tween-80 94 % of control

O=[N+]([O-])c1ccc(N=Cc2ccccc2O)cc1
inactive: dose: 50.0 mg/kg/injection, schedule: Q01DX001 (sc), vehicle: olive oil, sesame oil, peanut oil 98 % of control | dose: 100.0 mg/kg/injection, schedule: Q01DX001 (sc), vehicle: olive oil, sesame oil, peanut oil 98 % of control | dose: 200.0 mg/kg/injection, schedule: Q01DX001 (sc), vehicle: olive oil, sesame oil, peanut oil 98 % of control | dose: 400.0 mg/kg/injection, schedule: Q01DX001 (sc), vehicle: olive oil, sesame oil, peanut oil 108 % of control

CNS(=O)(=O)c1cccc(C(N)=S)c1
inactive: dose: 100.0 mg/kg/injection, schedule: Q01DX001 (ip), vehicle: saline with Tween-80 105 % of control | dose: 200.0 mg/kg/injection, schedule: Q01DX001 (ip), vehicle: saline with Tween-80 100 % of control | dose: 400.0 mg/kg/injection, schedule: Q01DX001 (ip), vehicle: saline with Tween-80 100 % of control

Cc1c2ccncc2cc2c3ccccc3n(CCO)c12
inactive: dose: 9.38 mg/kg/injection, schedule: Q01DX009 (ip), vehicle: Klucel (hydroxypropylcellulose) (HPC) 105 % of control | dose: 18.75 mg/kg/injection, schedule: Q01DX009 (ip), vehicle: Klucel (hydroxypropylcellulose) (HPC) 107 % of control | dose: 18.75 mg/kg/injection, schedule: Q04DX003 (ip), vehicle: Klucel (hydroxypropylcellulose) (HPC) 97 % of control | dose: 37.5 mg/kg/injection, schedule: Q01DX009 (ip), vehicle: Klucel (hydroxypropylcellulose) (HPC) 107 % of control | dose: 37.5 mg/kg/injection, schedule: Q04DX003 (ip), vehicle: Klucel (hydroxypropylcellulose) (HPC) 107 % of control | dose: 75.0 mg/kg/injection, schedule: Q04DX003 (ip), vehicle: Klucel (hydroxypropylcellulose) (HPC) 105 % of control | [7] 98 % of control | [8] 104 % of control

O=[As](O)(O)Cc1ccc(F)cc1
inactive: dose: 6.25 mg/kg/injection, schedule: Q01DX009 (ip), vehicle: Klucel (hydroxypropylcellulose) (HPC) 96 % of control | dose: 12.5 mg/kg/injection, schedule: Q01DX009 (ip), vehicle: Klucel (hydroxypropylcellulose) (HPC) 105 % of control | dose: 25.0 mg/kg/injection, schedule: Q01DX009 (ip), vehicle: Klucel (hydroxypropylcellulose) (HPC) 108 % of control
